# Publication PMC5218480 (PLoS ONE, 2017)
# Test system: MV-4-11 cells
# Test: Gene expression microarray analysis (Affymetrix PrimeView) and GSEA
# Type: cell-based, human
# Design: RFU PODN (11730768_x_at) / Fold change /veh PODN (11730768_x_at) / RFU LINC00158 (11744669_a_at) / Fold change /veh LINC00158 (11744669_a_at) / RFU DUSP10 (11751237_a_at) / Fold change /veh DUSP10 (11751237_a_at) / RFU ID3 (11757404_x_at) / Fold change /veh ID3 (11757404_x_at) / RFU PLEKHG5 (11737974_s_at) / Fold change /veh PLEKHG5 (11737974_s_at) / RFU LRRC4B (11730491_at) / Fold change /veh LRRC4B (11730491_at) / RFU GIMAP4 (11747438_a_at) / Fold change /veh GIMAP4 (11747438_a_at) / RFU KRT8 (11758183_x_at) / Fold change /veh KRT8 (11758183_x_at) / RFU CNN1 (11734310_a_at) / Fold change /veh CNN1 (11734310_a_at) / RFU VPS37D (11726825_at) / Fold change /veh VPS37D (11726825_at) / RFU C10orf10 (11716522_x_at) / Fold change /veh C10orf10 (11716522_x_at) / RFU KIR2DL2 /// KIR2DL4 /// KIR2DL5A /// KIR2DL5B /// KIR2DS1 /// KIR2DS2 /// KIR2DS3 /// KIR2DS4 /// KIR3DL3 /// KIR3DL3 /// KIR3DS1 (11738374_at) / Fold change /veh KIR2DL2 /// KIR2DL4 /// KIR2DL5A /// KIR2DL5B /// KIR2DS1 /// KIR2DS2 /// KIR2DS3 /// KIR2DS4 /// KIR3DL3 /// KIR3DL3 /// KIR3DS1 (11738374_at) / RFU C1QL1 (11718748_at) / Fold change /veh C1QL1 (11718748_at) / RFU TMPRSS4 (11747572_a_at) / Fold change /veh TMPRSS4 (11747572_a_at) / RFU HAMP (11756126_x_at) / Fold change /veh HAMP (11756126_x_at) / RFU RNFT2 (11725882_a_at) / Fold change /veh RNFT2 (11725882_a_at) / RFU NR4A2 (11747474_a_at) / Fold change /veh NR4A2 (11747474_a_at) / RFU ABCC12 (11746883_a_at) / Fold change /veh ABCC12 (11746883_a_at) / RFU TMEM136 (11760407_x_at) / Fold change /veh TMEM136 (11760407_x_at) / RFU CLDN22 /// WWC2 (11732394_at) / Fold change /veh CLDN22 /// WWC2 (11732394_at) / RFU HLA-DPB1 (11760878_x_at) / Fold change /veh HLA-DPB1 (11760878_x_at) / RFU SPINT1 (11716480_a_at) / Fold change /veh SPINT1 (11716480_a_at) / RFU GAP43 (11754022_s_at) / Fold change /veh GAP43 (11754022_s_at) / RFU A4GNT (11735810_at) / Fold change /veh A4GNT (11735810_at) / RFU PRB3 (11715151_x_at) / Fold change /veh PRB3 (11715151_x_at) / RFU TUBB4B (11761932_at) / Fold change /veh TUBB4B (11761932_at) / RFU CAPN14 (11732068_a_at) / Fold change /veh CAPN14 (11732068_a_at) / RFU TMCC2 (11721928_a_at) / Fold change /veh TMCC2 (11721928_a_at) / RFU IRGQ (11745062_a_at) / Fold change /veh IRGQ (11745062_a_at) / RFU FAM174B (11720279_a_at) / Fold change /veh FAM174B (11720279_a_at) / RFU TMPRSS4 (11748680_a_at) / Fold change /veh TMPRSS4 (11748680_a_at) / RFU FAM212B (11763350_a_at) / Fold change /veh FAM212B (11763350_a_at) / RFU PLEKHG5 (11743358_a_at) / Fold change /veh PLEKHG5 (11743358_a_at) / RFU ZSCAN30 (11745921_a_at) / Fold change /veh ZSCAN30 (11745921_a_at) / RFU CMKLR1 (11741424_a_at) / Fold change /veh CMKLR1 (11741424_a_at) / RFU LOC101060620 /// MAPK8IP1 (11723275_at) / Fold change /veh LOC101060620 /// MAPK8IP1 (11723275_at) / RFU SPTSSB (11747773_x_at) / Fold change /veh SPTSSB (11747773_x_at) / RFU PRSS12 (11739890_at) / Fold change /veh PRSS12 (11739890_at) / RFU BIN1 (11741810_x_at) / Fold change /veh BIN1 (11741810_x_at) / RFU WNT11 (11732464_a_at) / Fold change /veh WNT11 (11732464_a_at) / RFU C10orf10 (11716521_a_at) / Fold change /veh C10orf10 (11716521_a_at) / RFU C5orf56 (11738089_at) / Fold change /veh C5orf56 (11738089_at) / RFU CYB561 (11721691_x_at) / Fold change /veh CYB561 (11721691_x_at) / RFU ANKRD19P (11752326_a_at) / Fold change /veh ANKRD19P (11752326_a_at) / RFU OR2T12 /// OR2T33 /// OR2T8 (11738714_s_at) / Fold change /veh OR2T12 /// OR2T33 /// OR2T8 (11738714_s_at) / RFU VCAN (11748164_a_at) / Fold change /veh VCAN (11748164_a_at) / RFU JSRP1 (11732532_at) / Fold change /veh JSRP1 (11732532_at) / RFU KRTAP10-11 (11738290_x_at) / Fold change /veh KRTAP10-11 (11738290_x_at) / RFU MYO3A (11730013_a_at) / Fold change /veh MYO3A (11730013_a_at) / RFU EBF3 (11725865_a_at) / Fold change /veh EBF3 (11725865_a_at) / RFU CAMK2N1 (11719241_x_at) / Fold change /veh CAMK2N1 (11719241_x_at) / RFU C5orf56 (11738088_a_at) / Fold change /veh C5orf56 (11738088_a_at) / RFU OLFML3 (11715873_a_at) / Fold change /veh OLFML3 (11715873_a_at) / RFU LOC100653217 /// NTM (11731650_a_at) / Fold change /veh LOC100653217 /// NTM (11731650_a_at) / RFU MAPK11 (11762145_a_at) / Fold change /veh MAPK11 (11762145_a_at) / RFU FIZ1 (11724087_x_at) / Fold change /veh FIZ1 (11724087_x_at) / RFU OASL (11726364_x_at) / Fold change /veh OASL (11726364_x_at) / RFU SOX15 (11748057_x_at) / Fold change /veh SOX15 (11748057_x_at) / RFU CD79A (11719716_a_at) / Fold change /veh CD79A (11719716_a_at) / RFU HIST1H1D (11736915_at) / Fold change /veh HIST1H1D (11736915_at) / RFU CASKIN2 (11723855_a_at) / Fold change /veh CASKIN2 (11723855_a_at) / RFU LOC730098 (11760151_x_at) / Fold change /veh LOC730098 (11760151_x_at) / RFU OR4N2 (11742367_at) / Fold change /veh OR4N2 (11742367_at) / RFU PRRT2 (11749266_a_at) / Fold change /veh PRRT2 (11749266_a_at) / RFU SNX32 (11753110_a_at) / Fold change /veh SNX32 (11753110_a_at) / RFU CDHR5 (11726645_a_at) / Fold change /veh CDHR5 (11726645_a_at) / RFU RCAN1 (11760418_a_at) / Fold change /veh RCAN1 (11760418_a_at) / RFU FAM167A (11723789_a_at) / Fold change /veh FAM167A (11723789_a_at) / RFU FAM26E (11764081_at) / Fold change /veh FAM26E (11764081_at) / RFU ISYNA1 (11749810_s_at) / Fold change /veh ISYNA1 (11749810_s_at) / RFU ACY1 (11761880_at) / Fold change /veh ACY1 (11761880_at) / RFU 11764098_at / Fold change /veh 11764098_at / RFU SAMD14 (11745864_x_at) / Fold change /veh SAMD14 (11745864_x_at) / RFU NPB (11741838_a_at) / Fold change /veh NPB (11741838_a_at) / RFU TMPRSS6 (11731388_a_at) / Fold change /veh TMPRSS6 (11731388_a_at) / RFU KRTAP10-2 (11738614_at) / Fold change /veh KRTAP10-2 (11738614_at) / RFU ARHGAP8 /// PRR5-ARHGAP8 (11727945_x_at) / Fold change /veh ARHGAP8 /// PRR5-ARHGAP8 (11727945_x_at) / RFU KRTAP5-7 /// NADSYN1 (11734609_at) / Fold change /veh KRTAP5-7 /// NADSYN1 (11734609_at) / RFU RASL12 (11751679_a_at) / Fold change /veh RASL12 (11751679_a_at) / RFU CDKN2B (11736163_a_at) / Fold change /veh CDKN2B (11736163_a_at) / RFU PRF1 (11729649_at) / Fold change /veh PRF1 (11729649_at) / RFU, ZNF638 /// ZNF638-IT1 / Fold change vs veh, ZNF638 /// ZNF638-IT1 / RFU, PANK3 / Fold change vs veh, PANK3 / RFU, SH3YL1 / Fold change vs veh, SH3YL1 / RFU, ZEB2 / Fold change vs veh, ZEB2 / RFU, NRIP1 / Fold change vs veh, NRIP1 / RFU, PTTG1IP / Fold change vs veh, PTTG1IP / RFU, CAPN2 / Fold change vs veh, CAPN2 / RFU, MED14 / Fold change vs veh, MED14 / RFU, SNORA58 / Fold change vs veh, SNORA58 / RFU, C1orf63 / Fold change vs veh, C1orf63 / RFU, LRRFIP1 / Fold change vs veh, LRRFIP1 / RFU, NDUFAF7 / Fold change vs veh, NDUFAF7 / RFU, SLC12A2 / Fold change vs veh, SLC12A2 / RFU, IBTK / Fold change vs veh, IBTK / RFU, ESF1 / Fold change vs veh, ESF1 / Fold change vs veh, TMEM50B / RFU, TAOK1 / Fold change vs veh, TAOK1 / RFU, ACBD3 / Fold change vs veh, ACBD3 / RFU, TMA16 / Fold change vs veh, TMA16 / RFU, RWDD3 / Fold change vs veh, RWDD3 / RFU, BCAT1 / Fold change vs veh, BCAT1 / RFU, EDEM3 / Fold change vs veh, EDEM3 / RFU, TMEM33 / Fold change vs veh, TMEM33 / RFU, WDR75 / Fold change vs veh, WDR75 / RFU, AHCTF1 / Fold change vs veh, AHCTF1 / RFU, TFRC / Fold change vs veh, TFRC / RFU, ZDHHC17 / Fold change vs veh, ZDHHC17 / RFU, NOM1 / Fold change vs veh, NOM1 / RFU, ARL8B / Fold change vs veh, ARL8B / RFU, ZBTB11 / Fold change vs veh, ZBTB11 / RFU, TAMM41 / Fold change vs veh, TAMM41 / RFU, KIAA1704 /// LOC100996395 / Fold change vs veh, KIAA1704 /// LOC100996395 / RFU, ING1 / Fold change vs veh, ING1 / RFU, TRMT61B / Fold change vs veh, TRMT61B / RFU, FUBP3 / Fold change vs veh, FUBP3 / RFU, TP53 / Fold change vs veh, TP53 / RFU, TNKS2 / Fold change vs veh, TNKS2 / RFU, ZFP14 / Fold change vs veh, ZFP14 / RFU, ACTR2 / Fold change vs veh, ACTR2 / RFU, PPP3R1 / Fold change vs veh, PPP3R1 / RFU, PIK3R1 / Fold change vs veh, PIK3R1 / RFU, HNRNPA1 / Fold change vs veh, HNRNPA1 / RFU, RNF170 / Fold change vs veh, RNF170 / RFU, ZNF28 / Fold change vs veh, ZNF28 / RFU, RNGTT / Fold change vs veh, RNGTT / RFU, OGT / Fold change vs veh, OGT / RFU, BRD1 / Fold change vs veh, BRD1 / RFU, MARS / Fold change vs veh, MARS / RFU, ZNF655 / Fold change vs veh, ZNF655 / RFU, FAHD1 / Fold change vs veh, FAHD1 / RFU, BDP1 / Fold change vs veh, BDP1 / RFU, LRRCC1 / Fold change vs veh, LRRCC1 / RFU, ARID1A / Fold change vs veh, ARID1A / RFU, ZNF146 / Fold change vs veh, ZNF146 / RFU, ZNF330 / Fold change vs veh, ZNF330 / RFU, GPN3 / Fold change vs veh, GPN3 / RFU, C9orf123 / Fold change vs veh, C9orf123 / RFU, N4BP2L2 / Fold change vs veh, N4BP2L2 / RFU, ARFIP1 / Fold change vs veh, ARFIP1 / RFU, FAM179B / Fold change vs veh, FAM179B / RFU, BCL10 / Fold change vs veh, BCL10 / RFU, UHRF1BP1L / Fold change vs veh, UHRF1BP1L / RFU, BET1 / Fold change vs veh, BET1 / RFU, CNOT2 / Fold change vs veh, CNOT2 / RFU, ZNF268 / Fold change vs veh, ZNF268 / Fold change vs veh, ZNF507 / RFU, DGCR2 / Fold change vs veh, DGCR2 / RFU, WDSUB1 / Fold change vs veh, WDSUB1 / Fold change vs veh, HSP90B1 /// MIR3652 / RFU, ADSS / Fold change vs veh, ADSS / RFU, GK / Fold change vs veh, GK / RFU, ZNF148 / Fold change vs veh, ZNF148 / RFU, TAF9 / Fold change vs veh, TAF9 / RFU, SLC1A5 / Fold change vs veh, SLC1A5 / RFU, SLMO2 / Fold change vs veh, SLMO2 / RFU, ABCC4 / Fold change vs veh, ABCC4 / RFU, LOC101060439 /// RAP1B / Fold change vs veh, LOC101060439 /// RAP1B / RFU, RFX7 / Fold change vs veh, RFX7 / RFU, GTPBP10 / Fold change vs veh, GTPBP10 / RFU, CNEP1R1 / Fold change vs veh, CNEP1R1 / RFU, BIVM-ERCC5 /// ERCC5 / Fold change vs veh, BIVM-ERCC5 /// ERCC5 / RFU, ILF3 / Fold change vs veh, ILF3 / RFU 11762660_at / Fold change /veh 11762660_at / RFU VCAN (11757783_s_at) / Fold change /veh VCAN (11757783_s_at) / RFU DDX43 (11728927_at) / Fold change /veh DDX43 (11728927_at) / RFU KRT8 (11758188_x_at) / Fold change /veh KRT8 (11758188_x_at) / RFU NKD1 (11759106_at) / Fold change /veh NKD1 (11759106_at) / RFU SRD5A1 (11742802_a_at) / Fold change /veh SRD5A1 (11742802_a_at) / RFU TPSAB1 /// TPSB2 (11721975_s_at) / Fold change /veh TPSAB1 /// TPSB2 (11721975_s_at) / RFU GSTM3 (11746129_a_at) / Fold change /veh GSTM3 (11746129_a_at) / RFU IL23R (11737362_x_at) / Fold change /veh IL23R (11737362_x_at) / RFU TMEM51 (11727254_a_at) / Fold change /veh TMEM51 (11727254_a_at) / RFU PIWIL2 (11732686_x_at) / Fold change /veh PIWIL2 (11732686_x_at) / RFU ORM1 (11744905_x_at) / Fold change /veh ORM1 (11744905_x_at) / RFU CCDC152 (11743942_at) / Fold change /veh CCDC152 (11743942_at) / RFU ECM1 (11717891_a_at) / Fold change /veh ECM1 (11717891_a_at) / RFU IL23R (11748794_a_at) / Fold change /veh IL23R (11748794_a_at) / RFU TNFAIP8L3 (11732012_x_at) / Fold change /veh TNFAIP8L3 (11732012_x_at) / RFU MBOAT4 (11741988_at) / Fold change /veh MBOAT4 (11741988_at) / RFU 11764193_at / Fold change /veh 11764193_at / RFU TMEM53 (11763286_at) / Fold change /veh TMEM53 (11763286_at) / RFU MAGEB2 (11727129_at) / Fold change /veh MAGEB2 (11727129_at) / RFU TMEM200A (11744735_a_at) / Fold change /veh TMEM200A (11744735_a_at) / RFU CCDC152 (11751479_a_at) / Fold change /veh CCDC152 (11751479_a_at) / RFU FAM211A (11726209_a_at) / Fold change /veh FAM211A (11726209_a_at) / RFU RGS16 (11746705_a_at) / Fold change /veh RGS16 (11746705_a_at) / RFU VCAN (11755009_s_at) / Fold change /veh VCAN (11755009_s_at) / RFU RHOB (11743442_s_at) / Fold change /veh RHOB (11743442_s_at) / RFU RGS16 (11720943_a_at) / Fold change /veh RGS16 (11720943_a_at) / RFU RGS16 (11720944_at) / Fold change /veh RGS16 (11720944_at) / RFU, VPS4B / Fold change vs veh, VPS4B / RFU, CREB1 / Fold change vs veh, CREB1 / RFU, DNAJC13 / Fold change vs veh, DNAJC13 / RFU, GNAQ / Fold change vs veh, GNAQ / RFU, CDK5R1 / Fold change vs veh, CDK5R1 / RFU, ZRANB3 / Fold change vs veh, ZRANB3 / RFU, CUL4A / Fold change vs veh, CUL4A / RFU, CCNY / Fold change vs veh, CCNY / RFU, UFL1 / Fold change vs veh, UFL1 / RFU, COG3 / Fold change vs veh, COG3 / RFU, DIAPH2 / Fold change vs veh, DIAPH2 / RFU, SKA2 / Fold change vs veh, SKA2 / RFU, AFF3 / Fold change vs veh, AFF3 / RFU, LMF1 / Fold change vs veh, LMF1 / RFU, IPO11 / Fold change vs veh, IPO11 / RFU, DFFB / Fold change vs veh, DFFB / RFU, FOXP1 / Fold change vs veh, FOXP1 / RFU, CARD8 / Fold change vs veh, CARD8 / RFU, STRN3 / Fold change vs veh, STRN3 / RFU, ADK / Fold change vs veh, ADK / RFU, RASSF2 / Fold change vs veh, RASSF2 / RFU, WIPF1 / Fold change vs veh, WIPF1 / RFU, LARP1B / Fold change vs veh, LARP1B / RFU, RASA1 / Fold change vs veh, RASA1 / RFU, RB1 / Fold change vs veh, RB1 / RFU, PPFIA1 / Fold change vs veh, PPFIA1 / RFU, MAT2A / Fold change vs veh, MAT2A / RFU, CCT5 / Fold change vs veh, CCT5 / RFU, WDR92 / Fold change vs veh, WDR92 / RFU, CUX1 / Fold change vs veh, CUX1 / RFU, TTC7A / Fold change vs veh, TTC7A / RFU, TMEM135 / Fold change vs veh, TMEM135 / RFU, DEPTOR / Fold change vs veh, DEPTOR / RFU, CPM / Fold change vs veh, CPM / RFU, DNAJB6 / Fold change vs veh, DNAJB6 / RFU, CACNA2D3 / Fold change vs veh, CACNA2D3 / RFU, DTX4 / Fold change vs veh, DTX4 / RFU, TFCP2 / Fold change vs veh, TFCP2 / RFU, GMCL1 /// GMCL1P1 / Fold change vs veh, GMCL1 /// GMCL1P1 / RFU, AEBP2 / Fold change vs veh, AEBP2 / RFU, SNHG1 /// SNORD22 /// SNORD25 /// SNORD26 /// SNORD27 /// SNORD28 /// SNORD29 /// SNORD31 / Fold change vs veh, SNHG1 /// SNORD22 /// SNORD25 /// SNORD26 /// SNORD27 /// SNORD28 /// SNORD29 /// SNORD31 / Fold change (Aza/veh), C12orf56 (ProbeSet 11735607_a_at) / Fold change (ACY-1035/veh), C12orf56 (ProbeSet 11735607_a_at) / Fold change (Aza/veh), FGFR1OP (ProbeSet 11751329_s_at) / Fold change (ACY-1035/veh), FGFR1OP (ProbeSet 11751329_s_at) / Fold change (Aza/veh), VPS36 (ProbeSet 11739960_a_at) / Fold change (ACY-1035/veh), VPS36 (ProbeSet 11739960_a_at) / RFU SYPL1 (11715823_x_at) / Fold change /veh SYPL1 (11715823_x_at) / RFU IGFBP7 (11715501_s_at) / Fold change /veh IGFBP7 (11715501_s_at) / RFU REEP3 (11722064_at) / Fold change /veh REEP3 (11722064_at) / RFU IGLL1 (11728026_x_at) / Fold change /veh IGLL1 (11728026_x_at): dose or concentration left out as unconfirmed
# Conditions: ProbeSet 11720269_a_at; LIST B
smiles,measurement,value
Nc1ccc(-c2cccs2)cc1NC(=O)c1ccc2c(c1)cc(C1CC1)n2CCN1CCOCC1 [ACY-1035],"Fold change vs veh, IBTK",0.93
